Measured values published in ChEMBL document CHEMBL1139417, “Synthesis and biological evaluation of novel 3'-N-tert-butylsulfonyl analogues of docetaxel” (Bioorg Med Chem Lett, 2008).

Experiments:
Type in all cases: functional, cell-based
HCT-8 = experiment: Cytotoxicity against human HCT8 cells
SMMC-7721 = experiment: Cytotoxicity against human SMMC7721 cells
[1] = Cytotoxicity against human Eca109 cells; settings: ECa-109
HeLa = experiment: Cytotoxicity against human HeLa cells

SMILES | IC50 (HCT-8) | IC50 (SMMC-7721) | IC50 [1] | IC50 (HeLa)
CC(=O)O[C@@]12CO[C@@H]1C[C@H](O)[C@@]1(C)C(=O)[C@H](O)C3=C(C)[C@@H](OC(=O)[C@H](O)[C@@H](NS(=O)(=O)C(C)(C)C)c4cccc[n+]4[O-])C[C@@](O)([C@@H](OC(=O)c4ccccc4)[C@H]21)C3(C)C | 2.85 µM | 2540 nM | 1950 nM | 2540 nM
CC(=O)O[C@@]12CO[C@@H]1C[C@H](O)[C@@]1(C)C(=O)[C@H](O)C3=C(C)[C@@H](OC(=O)[C@H](O)[C@@H](NS(=O)(=O)C(C)(C)C)c4ccccc4)C[C@@](O)([C@@H](OC(=O)c4ccccc4)[C@H]21)C3(C)C | 9.12 µM | > 10000 nM | 7140 nM | 9540 nM
CC(=O)O[C@H]1C(=O)[C@@]2(C)[C@H]([C@H](OC(=O)c3ccccc3)[C@]3(O)C[C@H](OC(=O)[C@H](O)[C@@H](NC(=O)c4ccccc4)c4ccccc4)C(C)=C1C3(C)C)[C@]1(OC(C)=O)CO[C@@H]1C[C@@H]2O [PACLITAXEL] | 3.29 µM | 2860 nM | 2730 nM | –
CC(=O)O[C@@]12CO[C@@H]1C[C@H](O)[C@@]1(C)C(=O)[C@H](O)C3=C(C)[C@@H](OC(=O)[C@H](O)[C@@H](NS(=O)(=O)C(C)(C)C)c4ccc[n+]([O-])c4)C[C@@](O)([C@@H](OC(=O)c4ccccc4)[C@H]21)C3(C)C | 3.03 µM | 2450 nM | 2520 nM | 2670 nM
CC(=O)O[C@@]12CO[C@@H]1C[C@H](O)[C@@]1(C)C(=O)[C@H](O)C3=C(C)[C@@H](OC(=O)[C@H](O)[C@@H](NC(=O)OC(C)(C)C)c4ccccc4)C[C@@](O)([C@@H](OC(=O)c4ccccc4)[C@H]21)C3(C)C [DOCETAXEL] | 3.07 µM | 2730 nM | 2600 nM | 3030 nM
